Assay results taken from ChEMBL document CHEMBL5126609, “Design, Synthesis, and Pharmacological Evaluation of Benzimidazolo-thiazoles as Potent CXCR3 Antagonists with Therapeutic Potential in Autoimmune Diseases: Discovery of ACT-672125” (J Med Chem, 2022).

Columns and labels:
[1] = biological target: hERG (KCNH2) (Homo sapiens, UniProt Q12809); assay: Inhibition of hERG expressed in CHO cells at 3 uM at -80 mV holding potential assessed as current block incubated for 3 mins by Qpatch clamp method relative to control
[2] = biological target: T1, C-X-C chemokine receptor type 3 (Homo sapiens, UniProt P49682); assay: Antagonist activity at human recombinant CXCR3 expressed in CHO-K1 cells measured after 10 mins in presence of CXCL10 by FLIPR analysis
T1 sequence (P49682 whole entry): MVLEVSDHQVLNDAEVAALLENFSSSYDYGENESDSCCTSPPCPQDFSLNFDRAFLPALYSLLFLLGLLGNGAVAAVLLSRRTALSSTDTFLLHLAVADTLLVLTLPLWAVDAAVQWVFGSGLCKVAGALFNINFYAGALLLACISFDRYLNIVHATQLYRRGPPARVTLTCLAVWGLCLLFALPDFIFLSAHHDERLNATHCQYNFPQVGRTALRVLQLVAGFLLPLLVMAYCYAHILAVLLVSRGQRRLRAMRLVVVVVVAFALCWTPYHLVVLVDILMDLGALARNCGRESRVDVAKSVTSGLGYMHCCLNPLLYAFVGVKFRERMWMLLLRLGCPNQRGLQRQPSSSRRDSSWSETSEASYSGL

[3] = biological target: T1, C-X-C chemokine receptor type 3; assay: Antagonist activity at human recombinant CXCR3 in human venous blood assessed as receptor internalization measured for 30 mins in presence of CXCL10 by flow cytometric analysis

Sequence of hERG (KCNH2) (Q12809 whole entry): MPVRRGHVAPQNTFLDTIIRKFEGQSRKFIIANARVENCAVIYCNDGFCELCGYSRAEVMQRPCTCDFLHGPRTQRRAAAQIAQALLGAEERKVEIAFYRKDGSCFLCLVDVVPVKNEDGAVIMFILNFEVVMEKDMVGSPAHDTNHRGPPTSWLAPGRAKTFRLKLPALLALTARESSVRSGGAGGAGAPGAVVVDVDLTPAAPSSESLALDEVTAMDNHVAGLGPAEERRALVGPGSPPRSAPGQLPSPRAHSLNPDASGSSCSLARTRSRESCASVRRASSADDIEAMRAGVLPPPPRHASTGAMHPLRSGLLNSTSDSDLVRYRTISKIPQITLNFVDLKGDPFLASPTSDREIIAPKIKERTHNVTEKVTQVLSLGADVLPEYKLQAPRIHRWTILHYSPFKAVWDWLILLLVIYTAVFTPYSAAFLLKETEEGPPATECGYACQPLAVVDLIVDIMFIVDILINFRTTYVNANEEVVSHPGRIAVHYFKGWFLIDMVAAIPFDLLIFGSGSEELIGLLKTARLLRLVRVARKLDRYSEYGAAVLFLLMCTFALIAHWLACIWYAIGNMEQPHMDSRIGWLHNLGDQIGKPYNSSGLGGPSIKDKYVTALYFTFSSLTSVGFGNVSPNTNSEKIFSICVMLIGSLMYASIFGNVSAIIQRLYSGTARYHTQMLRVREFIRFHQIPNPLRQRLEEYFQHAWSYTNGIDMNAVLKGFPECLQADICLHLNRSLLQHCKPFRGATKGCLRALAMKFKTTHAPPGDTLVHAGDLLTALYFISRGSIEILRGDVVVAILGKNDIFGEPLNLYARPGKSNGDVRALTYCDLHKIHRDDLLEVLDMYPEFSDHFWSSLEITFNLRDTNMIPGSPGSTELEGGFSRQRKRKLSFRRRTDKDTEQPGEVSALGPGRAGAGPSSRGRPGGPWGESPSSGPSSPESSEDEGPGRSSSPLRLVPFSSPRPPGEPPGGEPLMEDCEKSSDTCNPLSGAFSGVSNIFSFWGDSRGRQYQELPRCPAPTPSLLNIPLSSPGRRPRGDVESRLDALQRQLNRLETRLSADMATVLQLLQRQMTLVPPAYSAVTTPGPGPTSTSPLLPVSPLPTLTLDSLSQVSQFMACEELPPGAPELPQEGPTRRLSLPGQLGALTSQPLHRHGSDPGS

SMILES	IC50 [2]	IC50 [3]	inhibition at 0.05 h, 3 µM [1]
C[C@@H]1CN(c2sc(C(F)(F)F)nc2-c2nc3cc(Cl)ccc3[nH]2)CCN1C(=O)Cn1cnc2cccnc21	2.8 nM	38.5 nM	83%
Cc1nc(C)n(CC(=O)N2CCN(c3sc(C(F)(F)F)nc3-c3nc4ccc(C(C)(C)O)c(F)c4[nH]3)C[C@H]2C)n1	–	–	18%
COC1CCN(CC(=O)N2CCN(c3sc(C(F)(F)F)nc3-c3nc4ccccc4[nH]3)C[C@H]2C)C1 (stereo not given in full)	–	–	85%
Cc1nc(C)n(CC(=O)N2CCN(c3sc(C(F)(F)F)nc3-c3nc4cccc(C)c4[nH]3)C[C@H]2C)n1	–	–	52%
C[C@@H]1CN(c2sc(C(F)(F)F)nc2-c2nc3ccccc3[nH]2)CCN1C(=O)Cn1ccc(C(=O)O)n1	–	–	-2%
C[C@@H]1CN(c2sc(C(F)(F)F)nc2-c2nc3ccccc3[nH]2)CCN1C(=O)CN1CCC(F)(F)CC1	–	–	84%
Cc1nc(C)n(CC(=O)N2CCN(c3sc(C(F)(F)F)nc3-c3nc4ccc(S(C)(=O)=O)cc4[nH]3)C[C@H]2C)n1	–	–	8%
Cc1nc(C)n(CC(=O)N2CCN(c3sc(C(F)(F)F)nc3-c3nc4ccc(N5CCOCC5)c(F)c4[nH]3)C[C@H]2C)n1	–	–	25%
Cc1nc(C)n(CC(=O)N2CCN(c3sc(C(F)(F)F)nc3-c3nc4ccc(O)c(F)c4[nH]3)C[C@H]2C)n1	–	–	15%
Cc1nc(C)n(CC(=O)N2CCN(c3sc(C(F)(F)F)nc3-c3nc4ccc(OC5COC5)cc4[nH]3)C[C@H]2C)n1	–	–	0%
Cc1nc(C)n(CC(=O)N2CCN(c3sc(C(F)(F)F)nc3-c3nc4ccc(OC5CNC5)cc4[nH]3)C[C@H]2C)n1	3.8 nM	580 nM	0%
Cc1nc(C)n(CC(=O)N2CCN(c3sc(C(F)(F)F)nc3-c3nc4ccc(C5CCNCC5)cc4[nH]3)C[C@H]2C)n1	2.2 nM	307 nM	5%
Cc1nc(C)n(CC(=O)N2CCN(c3sc(C(F)(F)F)nc3-c3nc4cc(N5CCOCC5)cc(F)c4[nH]3)C[C@H]2C)n1	–	–	6%
C[C@@H]1CN(c2sc(C(F)(F)F)nc2-c2nc3ccccc3[nH]2)CCN1C(=O)CN1C(=O)OC[C@@H]1c1ccccc1	–	–	83%

Continued, in another order:

IC50 [2]	IC50 [3]	SMILES	inhibition at 0.05 h, 3 µM [1]
6.1 nM	805 nM	Cc1ccc(CC(=O)N2CCN(c3sc(C(F)(F)F)nc3-c3nc4ccccc4[nH]3)C[C@H]2C)cn1	73%
6 nM	747 nM	Cc1nc(C)n(CC(=O)N2CCN(c3sc(C(F)(F)F)nc3-c3nc4c(C(F)(F)F)cccc4[nH]3)C[C@H]2C)n1	52%
31 nM	2470 nM	Cc1nnc(CC(=O)N2CCN(c3sc(C(F)(F)F)nc3-c3nc4ccccc4[nH]3)C[C@H]2C)o1	36%
1.7 nM	251 nM	C[C@@H]1CN(c2sc(C(F)(F)F)nc2-c2nc3ccccc3[nH]2)CCN1C(=O)Cn1cc(Cl)cn1	70%
1.6 nM	122 nM	C[C@@H]1CN(c2sc(C(F)(F)F)nc2-c2nc3ccc(N4CCN(C)CC4)cc3[nH]2)CCN1C(=O)Cn1cccn1	0%
2.6 nM	143 nM	C[C@@H]1CN(c2sc(C(F)(F)F)nc2-c2nc3ccccc3[nH]2)CCN1C(=O)Cn1c(=O)[nH]c2cccnc21	53%
110 nM	3560 nM	C[C@@H]1CN(c2sc(C(F)(F)F)nc2-c2nc3ccccc3n2C)CCN1C(=O)Cn1cccn1	46%
5.8 nM	1140 nM	Cc1nc(C)n(CC(=O)N2CCN(c3sc(C(F)(F)F)nc3-c3nc4ccc(-n5cncn5)cc4[nH]3)C[C@H]2C)n1	3%
15 nM	1690 nM	C[C@@H]1CN(c2sc(C(F)(F)F)nc2-c2nc3ccccc3[nH]2)CCN1C(=O)Cn1cc(C2CCN(C)CC2)cn1	74%
150 nM	6890 nM	COCCn1c(-c2nc(C(F)(F)F)sc2N2CCN(C(=O)Cn3cccn3)[C@H](C)C2)nc2ccccc21	2%
